Experimental data published in US8420820B2, “Pyrrolopyridinylpyrimidin-2-ylamine derivatives” (Merck Patent GmbH, priority 2008, dated 2013).

How the values were obtained:
PDK1 = target: T1, PDK1 (Homo sapiens, UniProt O15530); test: Test for the inhibition of PDK1 (flashplate, 33P-ATP); type: biochemical; conditions: His6-PDK1 3.4 nM, 4 μM ATP, 30° C., 60 min
T1 construct: His6 (N)
Method: The experimental batches are carried out in a flashplate system with 384 wells/microtitration plate.
In each case, the PDK1 sample His6-PDK1(SEQ ID NO: 2)(1-50)(3.4 nM), the PDK1 substrate biotin-bA-bA-[…] (SEQ ID NO: 3) (400 nM), 4 μM ATP (with 0.2 μCi of ^33P-ATP/well) and the test substance in 50 μl of conventional experimental solution per well are incubated at 30° C. for 60 min. The test substances are employed in corresponding concentrations (if desired in a dilution series). The control is carried out without test substance. The reaction is stopped using standard methods and washed. The activity of the kinase is measured via the incorporated radioactivity in top count. In order to determine the non-specific kinase reaction (blank value), the experimental batches are carried out in the presence of 100 nM staurosporin.
The radioactivity (decompositions per minute) of the blank value (no use of test substance in the presence of staurosporin) is subtracted from all other radioactivity values. The controls (kinase activity without test substance) are set equal to 100 percent and all other radioactivity values (after subtracting the blank value) are expressed set in relation thereto (for example in % of the control).
IC50 values (50% inhibition) are determined with the aid of statistics programmes, such as, for example, RS1.

[1] = test system: PDK1 kinase activity in PC3 cells (phospho-T308-PKB); test: Cellular testing of PDK1 kinase inhibitors in PC3 cells (Luminex, phospho-T308-PKB); type: cell-based; conditions: Homo sapiens, PC-3, 0.5 h, 30 min with test substance, serum-free, phospho-T308-PKB by Luminex, read-out: IC50 [PC3 P-PKB Thr308]
Method: Method for the Cellular Testing of PDK1 Kinase Inhibitors in PC3 Cells.
The cellular assay for the determination of the PDK1 kinase activity is carried out as a Luminex assay in the 96-well format. PC3 cells are sown at 20,000 cells per well in 100 μl of medium (45% of […]/45% of Ham's F12/10% of FCS) and incubated on the following day for 30 min with a serial dilution of the test substance (7 concentrations) under serum-free conditions. The cells are subsequently lysed using 90 μl of lysis buffer (20 mM tris/HCl pH 8.0, 150 mM NaCl, 1% of NP40, 10% of glycerol, 1% of phosphatase inhibitor I, 1% of phosphatase inhibitor II, 0.1% of protease inhibitor cocktail III, 0.01% of benzonase) per well, and the lysates are separated off from insoluble cell constituents by means of centrifugation through a 96-well filter plate (0.65 μm). The lysates are incubated overnight at 4° C. with shaking with Luminex beads to which an anti-total PKB antibody is coupled. The detection is carried out on the following day by addition of a phospho-T308-PKB antibody and a species-specific […] secondary antibody. The detection of phospho-T308-PKB is carried out by measurement in a Luminex100 instrument by determination of 100 events per cavity in a measurement time of 60 sec. As pharmacological blank, the signals obtained from cells which have been treated with 10 μM staurosporin are subtracted from all other batches. The control value used for maximum phosphorylation of PKB on T308 are the signals from cells which have only been treated with the solvent (0.3% of DMSO). The values of the batches treated with test substance are calculated therefrom as percentage of control, and IC50 values are determined by means of RS1.

T1 sequence (O15530 51-556): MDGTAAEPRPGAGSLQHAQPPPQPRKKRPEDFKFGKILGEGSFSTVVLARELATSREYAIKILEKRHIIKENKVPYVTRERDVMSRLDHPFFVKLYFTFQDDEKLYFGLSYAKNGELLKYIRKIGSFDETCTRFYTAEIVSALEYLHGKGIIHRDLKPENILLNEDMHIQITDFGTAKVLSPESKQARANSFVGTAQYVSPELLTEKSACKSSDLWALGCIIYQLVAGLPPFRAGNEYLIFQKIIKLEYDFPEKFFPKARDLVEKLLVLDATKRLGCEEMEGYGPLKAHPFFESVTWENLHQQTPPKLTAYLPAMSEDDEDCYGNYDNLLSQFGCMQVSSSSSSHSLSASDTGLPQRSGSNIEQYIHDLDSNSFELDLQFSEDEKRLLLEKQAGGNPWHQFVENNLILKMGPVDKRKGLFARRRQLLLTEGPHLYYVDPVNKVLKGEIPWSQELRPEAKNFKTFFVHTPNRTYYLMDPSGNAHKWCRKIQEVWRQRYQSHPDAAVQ

Row | Structure (SMILES) | IC50 (PDK1) [nM] | IC50 [1] [nM]
1 | CCc1cc(-c2c[nH]c3ncc(-c4cnn(C5CCNCC5)c4)cc23)nc(NC)n1 [Compound A64, {4-Ethyl-6-[5-(1-piperidin-4-yl-1H-pyrazol-4-yl)-1H-pyrrolo[2,3-b]pyridin-3-yl]pyrimidin-2-yl}methylamine] | 10 to 1000 | 
2 | Nc1nc(CCCCO)cc(-c2c[nH]c3ncccc23)n1 [Compound A45, 4-[2-Amino-6-(1H-pyrrolo[2,3-b]pyridin-3-yl)pyrimidin-4-yl]butan-1-ol] | 1000 to 10000 | 
3 | CC(O)Cc1cc(-c2c[nH]c3ncc(-c4cnn(C(C)C)c4)cc23)nc(N)n1 (centres unmarked) [Compound A36, 1-{2-Amino-6-[5-(1-isopropyl-1H-pyrazol-4-yl)-1H-pyrrolo[2,3-b]pyridin-3-yl]-pyrimidin-4-yl}propan-2-ol] | 10 to 1000 | 10000 to 20000
4 | CCc1cc(-c2c[nH]c3ncc(-c4cnn(C5CCN(S(C)(=O)=O)CC5)c4)cc23)nc(N)n1 [Compound A44, 4-Ethyl-6-{5-[1-(1-methanesulfonylpiperidin-4-yl)-1H-pyrazol-4-yl]-1H-pyrrolo[2,3-b]pyridin-3-yl}pyrimidin-2-ylamine] | 10 to 1000 | 1000 to 10000
5 | CCc1cc(-c2c[nH]c3ncc(-c4cccc(C(=O)NCCN(C)C)c4)cc23)nc(N)n1 [Compound A11, 3-[3-(2-amino-6-ethylpyrimidin-4-yl)-1H-pyrrolo-[2,3-b]pyridin-5-yl]-N-(2-dimethylaminoethyl)benzamide] | 10 to 1000 | 10000 to 20000
6 | CCc1cc(-c2c[nH]c3ncc(-c4cn[nH]c4)cc23)nc(NC)n1 [Compound A62, {4-Ethyl-6-[5-(1H-pyrazol-4-yl)-1H-pyrrolo[2,3-b]pyridin-3-yl]pyrimidin-2-yl}-methylamine] | 10 to 1000 | 
7 | CC(C)n1cc(-c2cnc3[nH]cc(-c4cc(C5(O)CCN(CCc6ccc(F)cc6)CC5)nc(N)n4)c3c2)cn1 [Compound A116, 4-{2-Amino-6-[5-(1-isopropyl-1H-pyrazol-4-yl)-1H-pyrrolo[2,3-b]pyridin-3-yl]-pyrimidin-4-yl}-1-[2-(4-fluorophenyl)ethyl]piperidin-4-ol] | 10 to 1000 | 10000 to 20000
8 | CCc1cc(-c2c[nH]c3ncc(-c4ccc(N5CCNCC5)nc4)cc23)nc(N)n1 [Compound A10, 4-ethyl-6-[5-(6-piperazin-1-ylpyridin-3-yl)-1H-pyrrolo[2,3-b]pyridin-3-yl]pyrimidin-2-ylamine] | 10 to 1000 | 1000 to 10000
9 | CC(C)n1cc(-c2cnc3[nH]cc(-c4cc(C5(O)CCCC5)nc(N)n4)c3c2)cn1 [Compound A54, 1-{2-Amino-6-[5-(1-isopropyl-1H-pyrazol-4-yl)-1H-pyrrolo[2,3-b]pyridin-3-yl]-pyrimidin-4-yl}cyclopentanol] | 10 to 1000 | 10000 to 20000
10 | CCc1cc(-c2c[nH]c3ncc(-c4cnn(CCN(C)C)c4)cc23)nc(NC)n1 [Compound A61, (4-{5-[1-(2-Dimethylaminoethyl)-1H-pyrazol-4-yl]-1H-pyrrolo[2,3-b]pyridin-3-yl}-6-ethylpyrimidin-2-yl)methylamine] | 10 to 1000 | 
11 | CCc1cc(-c2c[nH]c3ncc(-c4cnn(CC(=O)N5CCCC5)c4)cc23)nc(NC)n1 [Compound A66, 2-{4-[3-(6-Ethyl-2-methylaminopyrimidin-4-yl)-1H-pyrrolo[2,3-b]pyridin-5-yl]-pyrazol-1-yl}-1-pyrrolidin-1-ylethanone] | 10 to 1000 | 
12 | CCCCc1cc(-c2c[nH]c3ncc(-c4cnn(C5CCN(C)CC5)c4)cc23)nc(NC)n1 [Compound A71, (4-Butyl-6-{5-[1-(1-methylpiperidin-4-yl)-1H-pyrazol-4-yl]-1H-pyrrolo[2,3-b]-pyridin-3-yl}pyrimidin-2-yl)methylamine] | 10 to 1000 | 
13 | CCc1cc(-c2c[nH]c3ncc(-c4cnn(C)c4)cc23)nc(NC)n1 [Compound A63, {4-Ethyl-6-[5-(1-methyl-1H-pyrazol-4-yl)-1H-pyrrolo[2,3-b]pyridin-3-yl]-pyrimidin-2-yl}methylamine] | 10 to 1000 | 
14 | CCc1cc(-c2c[nH]c3ncc(-c4cnn(CCO)c4)cc23)nc(NC)n1 [Compound A68, 2-{4-[3-(6-Ethyl-2-methylaminopyrimidin-4-yl)-1H-pyrrolo[2,3-b]pyridin-5-yl]-pyrazol-1-yl}ethanol] | 10 to 1000 | 
15 | CCc1cc(-c2c[nH]c3ncc(-c4cnn(C(C)C)c4)cc23)nc(NC)n1 [Compound A60, {4-Ethyl-6-[5-(1-isopropyl-1H-pyrazol-4-yl)-1H-pyrrolo[2,3-b]pyridin-3-yl]-pyrimidin-2-yl}methylamine] | 10 to 1000 | 
16 | CCCCc1cc(-c2c[nH]c3ncc(-c4cnn(CCO)c4)cc23)nc(NC)n1 [Compound A67, 2-{4-[3-(6-Butyl-2-methylaminopyrimidin-4-yl)-1H-pyrrolo[2,3-b]pyridin-5-yl]-pyrazol-1-yl}ethanol] | 10 to 1000 | 
17 | CCc1cc(-c2c[nH]c3ncc(-c4cnn(CC(=O)N5CCCCC5)c4)cc23)nc(NC)n1 [Compound A65, 2-{4-[3-(6-Ethyl-2-methylaminopyrimidin-4-yl)-1H-pyrrolo[2,3-b]pyridin-5-yl]-pyrazol-1-yl}-1-piperidin-1-ylethanone] | 10 to 1000 | 
18 | CCCCc1cc(-c2c[nH]c3ncc(-c4cnn(C5CCNCC5)c4)cc23)nc(NC)n1 [Compound A70, {4-Butyl-6-[5-(1-piperidin-4-yl-1H-pyrazol-4-yl)-1H-pyrrolo[2,3-b]pyridin-3-yl]pyrimidin-2-yl}methylamine] | 10 to 1000 | 

Further lines, results first:

Row | IC50 (PDK1) [nM] | IC50 [1] [nM] | Structure (SMILES)
19 | 10 to 1000 |  | CCc1cc(-c2c[nH]c3ncc(-c4cnn(CC(=O)N5CCCc6ccccc65)c4)cc23)nc(NC)n1 [Compound A73, 1-(3,4-Dihydro-2H-quinolin-1-yl)-2-{4-[3-(6-ethyl-2-methylaminopyrimidin-4-yl)-1H-pyrrolo[2,3-b]pyridin-5-yl]pyrazol-1-yl}ethanone]
20 | 1000 to 10000 | 1000 to 10000 | Nc1nc(-c2c[nH]c3ncccc23)cc(C2(O)CCN(C(=O)OCc3ccccc3)CC2)n1 [Compound A113, 4-[2-Amino-6-(1H-pyrrolo[2,3-b]pyridin-3-yl)pyrimidin-4-yl]-4-hydroxypiperidine-1-carboxylic acid benzyl ester]
21 | 10 to 1000 | 10000 to 20000 | CC(C)n1cc(-c2cnc3[nH]cc(-c4cc(CCC(=O)N(C)C)nc(N)n4)c3c2)cn1 [Compound A101, 3-{2-Amino-6-[5-(1-isopropyl-1H-pyrazol-4-yl)-1H-pyrrolo[2,3-b]pyridin-3-yl]-pyrimidin-4-yl}-N,N-dimethylpropionamide]
22 | 1000 to 10000 |  | CN(C)CCNC(=O)CCc1cc(-c2c[nH]c3ncccc23)nc(N)n1 [Compound A83, 3-[2-Amino-6-(1H-pyrrolo[2,3-b]pyridin-3-yl)pyrimidin-4-yl]-N-(2-dimethylaminoethyl)propionamide]
23 | 10 to 1000 |  | CCc1cc(-c2c[nH]c3ncc(-c4cnn(C(C)C)c4)cc23)nc(OC)n1 [Compound A75, 3-(6-Ethyl-2-methoxypyrimidin-4-yl)-5-(1-isopropyl-1H-pyrazol-4-yl)-1H-pyrrolo[2,3-b]pyridine]
24 | 10 to 1000 |  | CCc1cc(-c2c[nH]c3ncc(-c4cnn(C(C)C(=O)Nc5ccc6[nH]ccc6c5)c4)cc23)nc(NC)n1 (centres unmarked) [Compound A72, 2-{4-[3-(6-Ethyl-2-methylaminopyrimidin-4-yl)-1H-pyrrolo[2,3-b]pyridin-5-yl]-pyrazol-1-yl}-N-(1H-indol-5-yl)propionamide]
25 | 1000 to 10000 |  | COc1nc(Cc2ccccc2)cc(-c2c[nH]c3ncc(-c4cnn(C(C)C)c4)cc23)n1 [Compound A74, 3-(6-Benzyl-2-methoxypyrimidin-4-yl)-5-(1-isopropyl-1H-pyrazol-4-yl)-1H-pyrrolo[2,3-b]pyridine]
26 | 10 to 1000 |  | CC(C)Cn1cc(-c2cnc3[nH]cc(-c4cc(CCCN)nc(N)n4)c3c2)cn1 [Compound A84, 4-(3-Aminopropyl)-6-[5-(1-isobutyl-1H-pyrazol-4-yl)-1H-pyrrolo[2,3-b]pyridin-3-yl]pyrimidin-2-ylamine]
27 | 1000 to 10000 |  | Nc1nc(CCC(=O)N2CCOCC2)cc(-c2c[nH]c3ncccc23)n1 [Compound A82, 3-[2-Amino-6-(1H-pyrrolo[2,3-b]pyridin-3-yl)pyrimidin-4-yl]-1-morpholin-4-ylpropan-1-one]
